Data on 21 compounds can be found in patent US9593123B2, “Triazolo[4,5-D]pyrimidine derivatives” (Hoffmann-La Roche Inc., priority 2013, dated 2017).

The EC50 is the concentration needed to bring the measured effect to its halfway point.

One assay addresses human CB2 receptor (Homo sapiens (Human), UniProt P34972). The experiment in a line: cAMP assay, CHO cells expressing human CB2 receptors. Format: cell-based. The conditions noted are these: functional cAMP assay, read-out: CB2 hcAMP EC50. Summed up: (§1)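 CHO-hCB1/hCB2 cells, KRB + 1 mM IBMX preincubation 30 min 30 °C; cpd 30 min 30 °C; lysis + TR-FRET cAMP detection, 2 h RT; cAMP from std curve; EC50.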
On the technique in general: cAMP levels reflect the balance of adenylyl cyclase and phosphodiesterase activity.

The target of the next assay is human CB1 receptor (Homo sapiens (Human), UniProt P21554). The experiment in a line: cAMP assay, CHO cells expressing human CB1 receptors. The format is cell-based. The conditions noted are these: functional cAMP assay, read-out: CB1 hcAMP EC50. The gist of the method:
as §1

Structures are written as SMILES. Some results are limits rather than exact numbers.

Chain of human CB2 receptor (P34972 whole entry): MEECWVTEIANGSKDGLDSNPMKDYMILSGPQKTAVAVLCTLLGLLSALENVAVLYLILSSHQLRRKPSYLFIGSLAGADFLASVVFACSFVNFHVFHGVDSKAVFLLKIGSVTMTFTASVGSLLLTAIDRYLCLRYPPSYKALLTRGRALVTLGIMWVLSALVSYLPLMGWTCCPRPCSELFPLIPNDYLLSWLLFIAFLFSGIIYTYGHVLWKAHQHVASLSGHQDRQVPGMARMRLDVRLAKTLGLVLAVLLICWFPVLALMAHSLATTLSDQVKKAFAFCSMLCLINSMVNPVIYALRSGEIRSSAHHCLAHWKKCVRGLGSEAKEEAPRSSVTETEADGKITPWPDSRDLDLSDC
Chain of human CB1 receptor (P21554 whole entry): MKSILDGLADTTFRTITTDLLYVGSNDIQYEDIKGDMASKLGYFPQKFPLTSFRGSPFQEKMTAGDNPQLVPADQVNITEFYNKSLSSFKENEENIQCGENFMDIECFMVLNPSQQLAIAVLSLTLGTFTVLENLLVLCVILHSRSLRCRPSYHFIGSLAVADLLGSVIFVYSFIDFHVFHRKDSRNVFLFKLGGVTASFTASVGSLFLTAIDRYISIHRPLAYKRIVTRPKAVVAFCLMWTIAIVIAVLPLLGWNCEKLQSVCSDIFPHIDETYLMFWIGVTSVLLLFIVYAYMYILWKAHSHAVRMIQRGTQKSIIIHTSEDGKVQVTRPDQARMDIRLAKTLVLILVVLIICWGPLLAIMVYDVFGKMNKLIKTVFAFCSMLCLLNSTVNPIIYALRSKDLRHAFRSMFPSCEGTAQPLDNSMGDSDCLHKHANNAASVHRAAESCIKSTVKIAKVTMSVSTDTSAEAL

As to `C[C@H](Oc1nc(N2CCC(F)(F)C2)c2nnn(Cc3ccccc3S(C)(=O)=O)c2n1)C(F)(F)F` [Example 69, 7-(3,3-Difluoropyrrolidin-1-yl)-3-[(2-methylsulfonylphenyl)methyl]-5-[(2S)-1,1,1-trifluoropropan-2-yl]oxytriazolo[4,5-d]pyrimidine], the EC50 was 3.2 nM on human CB2 receptor and above 10000 nM at human CB1 receptor.
The matching figures for `Cc1nnc(Cn2nnc3c(N4CCC(F)(F)C4)nc(O[C@@H](C)C(F)(F)F)nc32)o1` [Example 71, 2-[[7-(3,3-Difluoropyrrolidin-1-yl)-5-[(2S)-1,1,1-trifluoropropan-2-yl]oxytriazolo[4,5-d]pyrimidin-3-yl]methyl]-5-methyl-1,3,4-oxadiazole]: 214 nM and above 10000 nM.
Take `Cc1noc(Cn2nnc3c(N4CCC(F)(F)C4)nc(O[C@@H](C)C(F)(F)F)nc32)n1` [Example 72, 5-[[7-(3,3-Difluoropyrrolidin-1-yl)-5-[(2S)-1,1,1-trifluoropropan-2-yl]oxytriazolo[4,5-d]pyrimidin-3-yl]methyl]-3-methyl-1,2,4-oxadiazole]: the EC50 was 67.4 nM on human CB2 receptor and above 10000 nM at human CB1 receptor.
For `FCCOc1nc(N2CCC(F)(F)C2)c2nnn(Cc3ccccc3Cl)c2n1` [Example 46, 3-[(2-Chlorophenyl)methyl]-7-(3,3-difluoropyrrolidin-1-yl)-5-(2-fluoroethoxy) triazolo[4,5-d]pyrimidine], the EC50 on human CB2 receptor is 5.3 nM; on human CB1 receptor it was above 10000 nM.
On to `FC1(F)CCN(c2nc(NC3CCC3)nc3c2nnn3Cc2ccccc2Cl)C1` [Example 11, 3-[(2-Chlorophenyl)methyl]-N-cyclobutyl-7-(3,3-difluoropyrrolidin-1-yl)triazolo[4,5-d]pyrimidin-5-amine], for which the results for the EC50 at human CB2 receptor and at human CB1 receptor were 2.6 nM and above 10000 nM, respectively.
The matching figures for `Cn1nnnc1Cn1nnc2c(N3CC[C@H](O)C3)nc(NC(C)(C)C)nc21` [Example 29, (3S)-1-[5-(tert-Butylamino)-3-[(1-methyltetrazol-5-yl)methyl]triazolo[4,5-d]pyrimidin-7-yl]pyrrolidin-3-ol]: 48.6 nM and above 10000 nM.
`FC1(F)CCN(c2nc(N3CCC3)nc3c2nnn3Cc2ccccc2Cl)C1` [Example 9, 5-(Azetidin-1-yl)-3-[(2-chlorophenyl)methyl]-7-(3,3-difluoropyrrolidin-1-yl)triazolo [4,5-d]pyrimidine]: the half-maximal effective concentration (EC50) is 1.6 nM on human CB2 receptor and 363 nM on human CB1 receptor.
Take `COc1ccc(Cn2nnc3c(N4CC[C@](C)(O)C4)nc(NC(C)(C)C)nc32)cc1` [Example 30, (3S)-1-[5-(tert-Butylamino)-3-[(4-methoxyphenyl)methyl]triazolo[4,5-d]pyrimidin-7-yl]-3-methylpyrrolidin-3-ol]: the EC50 at human CB2 receptor was 89.9 nM; on human CB1 receptor, above 10000 nM.
`Cc1nonc1Cn1nnc2c(N3CCC(F)(F)C3)nc(NC(C)(C)C)nc21` [Example 26, N-tert-Butyl-7-(3,3-difluoropyrrolidin-1-yl)-3-[(4-methyl-1,2,5-oxadiazol-3-yl)methyl]triazolo[4,5-d]pyrimidin-5-amine]: the half-maximal effective concentration (EC50) at human CB2 receptor was 1 nM; on human CB1 receptor it was above 10000 nM.
In the same order, the values of `FC1(F)CCN(c2nc(C3CC3)nc3c2nnn3Cc2ccccc2Cl)C1` [Example 4, 3-[(2-Chlorophenyl)methyl]-5-cyclopropyl-7-(3,3-difluoropyrrolidin-1-yl)triazolo[4,5-d]pyrimidine] are 1 nM and 750 nM.
As to `CN(c1nc(N2CCC(F)(F)C2)c2nnn(Cc3ccccc3Cl)c2n1)C1CCC1` [Example 18, 3-[(2-Chlorophenyl)methyl]-N-cyclobutyl-7-(3,3-difluoropyrrolidin-1-yl)-N-methyltriazolo[4,5-d]pyrimidin-5-amine], the EC50 was found to be 8.1 nM on human CB2 receptor and 967 nM on human CB1 receptor.
In the case of `CC(C)(C)Nc1nc(N2CC[C@H](O)C2)c2nnn(Cc3ccccc3Cl)c2n1` [Example 28, (3S)-1-[5-(tert-Butylamino)-3-[(2-chlorophenyl)methyl]triazolo[4,5-d]pyrimidin-7-yl]pyrrolidin-3-ol], the 50% effective concentration (EC50) on human CB2 receptor is 2.3 nM; at human CB1 receptor, above 10000 nM.
The matching figures for `CC(Oc1nc(N2CCC(F)(F)C2)c2nnn(Cc3ccccc3Cl)c2n1)C(F)(F)F` (stereo not drawn) [Example 41, 3-[(2-Chlorophenyl)methyl]-7-(3,3-difluoropyrrolidin-1-yl)-5-(1,1,1-trifluoropropan-2-yloxy)triazolo[4,5-d]pyrimidine]: 8.5 nM and above 10000 nM.
In the same order, the values of `CC(C)(C)Nc1nc(N2CCC(F)(F)C2)c2nnn(Cc3ccccc3C(F)(F)F)c2n1` [Example 22, N-tert-Butyl-7-(3,3-difluoropyrrolidin-1-yl)-3-[[2-(trifluoromethyl)phenyl]methyl]triazolo[4,5-d]pyrimidin-5-amine] are 2.1 nM and above 10000 nM.
The matching figures for `C=C(C)c1nc(N2CC[C@H](O)C2)c2nnn(Cc3ccccc3Cl)c2n1` [Example 6, (3S)-1-[3-[(2-Chlorophenyl)methyl]-5-prop-1-en-2-yltriazolo[4,5-d]pyrimidin-7-yl]pyrrolidin-3-ol]: 3.6 nM and above 10000 nM.
With `CC(C)Oc1nc(N2CC[C@H](O)C2)c2nnn(Cc3ccccc3Cl)c2n1` [Example 62, (3S)-1-[3-[(2-Chlorophenyl)methyl]-5-propan-2-yloxytriazolo[4,5-d]pyrimidin-7-yl]pyrrolidin-3-ol], the EC50 on human CB2 receptor was 14.8 nM; on human CB1 receptor it was above 10000 nM.
In the same order, the values of `FC1(F)CCN(c2nc(C3CCC3)nc3c2nnn3Cc2ccccc2Cl)C1` [Example 1, 3-[(2-Chlorophenyl)methyl]-5-cyclobutyl-7-(3,3-difluoropyrrolidin-1-yl)triazolo[4,5-d]pyrimidine] are 1 nM and above 10000 nM.
The matching figures for `Cn1nnnc1Cn1nnc2c(N3CCC(F)(F)C3)nc(OCC(C)(C)C)nc21` [Example 65, 7-(3,3-Difluoropyrrolidin-1-yl)-5-(2,2-dimethylpropoxy)-3-[(1-methyltetrazol-5-yl)methyl]triazolo[4,5-d]pyrimidine]: 11.9 nM and above 10000 nM.
For `CC(C)(C)COc1nc(N2CCC(F)(F)C2)c2nnn(Cc3ccccc3S(C)(=O)=O)c2n1` [Example 66, 7-(3,3-Difluoropyrrolidin-1-yl)-5-(2,2-dimethylpropoxy)-3-[(2-methylsulfonylphenyl)methyl]triazolo[4,5-d]pyrimidine], the results for the concentration giving a half-maximal response (EC50) on human CB2 receptor and on human CB1 receptor were 3.9 nM and above 10000 nM, respectively.
The matching figures for `CC1(Nc2nc(N3CCC(F)(F)C3)c3nnn(Cc4ccccc4Cl)c3n2)COC1` [Example 13, 3-[(2-Chlorophenyl)methyl]-7-(3,3-difluoropyrrolidin-1-yl)-N-(3-methyloxetan-3-yl)triazolo[4,5-d]pyrimidin-5-amine]: 12.5 nM and above 10000 nM.
In the same order, the values of `CC(C)CSc1nc(N2CCC(F)(F)C2)c2nnn(Cc3ccccc3Cl)c2n1` [Example 92, 3-[(2-Chlorophenyl)methyl]-7-(3,3-difluoropyrrolidin-1-yl)-5-(2-methylpropylsulfanyl)triazolo[4,5-d]pyrimidine] are 2.5 nM and above 10000 nM.
